pIC50: −log10 of the molar value.
Biological target: T1, RNR (RNR1:RNR2 1:1) (Homo sapiens, UniProt P23921)
T1 sequence (P23921 1-792): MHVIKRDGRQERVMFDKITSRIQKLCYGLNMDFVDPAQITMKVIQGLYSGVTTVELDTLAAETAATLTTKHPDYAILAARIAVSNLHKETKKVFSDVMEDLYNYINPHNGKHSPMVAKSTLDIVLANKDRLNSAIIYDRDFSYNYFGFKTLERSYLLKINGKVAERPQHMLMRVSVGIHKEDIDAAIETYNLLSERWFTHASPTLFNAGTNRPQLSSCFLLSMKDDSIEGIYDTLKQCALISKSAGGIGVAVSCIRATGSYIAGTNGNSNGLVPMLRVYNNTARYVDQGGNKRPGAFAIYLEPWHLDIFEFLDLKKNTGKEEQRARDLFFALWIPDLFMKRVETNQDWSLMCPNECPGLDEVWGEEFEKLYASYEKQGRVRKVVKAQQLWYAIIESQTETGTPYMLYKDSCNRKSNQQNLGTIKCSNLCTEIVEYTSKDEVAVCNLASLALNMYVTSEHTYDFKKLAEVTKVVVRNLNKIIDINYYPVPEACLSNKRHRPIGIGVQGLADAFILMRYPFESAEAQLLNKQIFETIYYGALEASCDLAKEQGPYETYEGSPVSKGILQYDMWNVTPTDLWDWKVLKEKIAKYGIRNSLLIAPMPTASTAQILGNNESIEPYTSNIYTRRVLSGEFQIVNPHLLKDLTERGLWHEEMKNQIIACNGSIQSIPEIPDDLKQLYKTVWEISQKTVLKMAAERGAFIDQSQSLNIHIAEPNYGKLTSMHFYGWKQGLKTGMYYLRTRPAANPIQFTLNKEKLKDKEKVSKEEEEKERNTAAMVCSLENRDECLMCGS
Assay: RNR enzyme activity, rapid-fire mass spectrometry (RFMS) assay
Format: biochemical
Conditions: RNR 50 nM, CDP 5 μM, ATP 1 mM, 37° C., 45 min, compounds screened up to 50 μM, read-out: RF/MS IC50
In short: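 Human RNR1:RNR2 (1:1, 50 nM) pre-incubated 15 min at room temperature with compound, then reacted with 5 μM CDP and 1 mM ATP, no NADPH, for 45 min at 37 °C. Stopped with 6% HCOOH; turnover read by rapid-fire mass spectrometry; Triapine and hydroxyurea as reference compounds.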

- pIC50: 5.00 to 6.00
Structure (SMILES): Cc1ccc(F)c(C(C)[C@H](NS(=O)(=O)N2CCCC2)c2n[nH]c(=O)o2)c1C (stereo partly drawn) [Example 112, N-((1S)-2-(6-fluoro-2,3-dimethylphenyl)-1-(5-oxo-4,5-dihydro-1,3,4-oxadiazol-2-yl)propyl)pyrrolidine-1-sulfonamide]

Reference: patent US20240425490A1, “SULFAMIDE RIBONUCLEOTIDE REDUCTASE (RNR) INHIBITORS AND USES THEREOF” (Boundless Bio, Inc., priority 2021, published 2024)
